# Source: patent US20220273005A1, “METHOD OF INDUCING BACTERIAL HEAT SENSITIVITY” (THE STATE OF ISRAEL, MINISTRY OF AGRICULTURE & RURAL …, priority 2019, published 2022)
# Columns and labels:
# [1] = system: Bacillus subtilis wt; conditions: wt strain with Mg2+ ions; previously shown; cited from earlier work
# [2] = system: Bacillus subtilis wt; conditions: wt strain with Mg2+ ions; previously shown; cited from earlier work; remark: listed apart in the source
# [3] = system: Bacillus subtilis NCIB 3610 pellicle biofilm; test: Pellicle biofilm formation with CL added to the medium; type: cell-based; conditions: FIG. 5A
# Protocol: Three kinds of biofilms were tested—colony type, pellicle and bundles. For colony type—bacteria were grown in LB medium for 5h and then 3-5 μl of the culture were spotted on an LB-GM (1% tryptone, 0.5% yeast extract, 0.5% NaCl, 1% glycerol, 0.1 mM MnSO4 and 2% agar) (Difco) or modified MRS (MMRS—MRS pH 7) (Man, Rogosa & Sharpe) (Hy-labs) plates. Once the spotted drops were soaked into the medium, the plates were incubated upside down at 30° C. for 72 h. For pellicle biofilm formation 24-well plates were used. Bacteria were grown in LB medium for 5 h and then the culture was diluted 1:1000 into MMRS. […] For the experiments with supplementation of CL, 0-100 μM CL dissolved in chloroform was added (final concentration of chloroform was 0.2%). For bundle type biofilm, a starter culture was prepared using a single bacterial colony inoculated into 5 ml of LB medium overnight at 30° C., 150 rpm. Next, bacteria were diluted 1:100 into fresh MMRS at 37° C., 25 rpm and after 5-7 h a 1 ml sample was taken and washed twice with sterile water. For longer incubation times, a starter culture was prepared using a single bacterial colony inoculated into 3 ml of LB medium for 5 h at 37° C., 150 rpm. Next, bacteria were diluted 1:100 into fresh MMRS at 23° C., 25 rpm overnight. The samples were visualized by fluorescence microscopy.
# [4] = system: Bacillus subtilis ΔclsA and ΔclsB mutants; test: Rescue of the biofilm phenotype of the cls mutants by added CL; type: cell-based; conditions: 10-fold serial dilutions of CL in the medium; data not shown
# Protocol: Three kinds of biofilms were tested—colony type, pellicle and bundles. For colony type—bacteria were grown in LB medium for 5h and then 3-5 μl of the culture were spotted on an LB-GM (1% tryptone, 0.5% yeast extract, 0.5% NaCl, 1% glycerol, 0.1 mM MnSO4 and 2% agar) (Difco) or modified MRS (MMRS—MRS pH 7) (Man, Rogosa & Sharpe) (Hy-labs) plates. Once the spotted drops were soaked into the medium, the plates were incubated upside down at 30° C. for 72 h. For pellicle biofilm formation 24-well plates were used. Bacteria were grown in LB medium for 5 h and then the culture was diluted 1:1000 into MMRS. Next, plates were incubated at 30° C., 20 rpm for 48 h. For the experiments with supplementation of CL, 0-100 μM CL dissolved in chloroform was added (final concentration of chloroform was 0.2%). For bundle type biofilm, a starter culture was prepared using a single bacterial colony inoculated into 5 ml of LB medium overnight at 30° C., 150 rpm. Next, bacteria were diluted 1:100 into fresh MMRS at 37° C., 25 rpm and after 5-7 h a 1 ml sample was taken and washed twice with sterile water. For longer incubation times, a starter culture was prepared using a single bacterial colony inoculated into 3 ml of LB medium for 5 h at 37° C., 150 rpm. Next, bacteria were diluted 1:100 into fresh MMRS at 23° C., 25 rpm overnight. The samples were visualized by fluorescence microscopy. […]
# [5] = system: Bacillus subtilis YC189 (PtapA-cfp) bundle biofilm; test: Bundle biofilm formation and tapA promoter (PtapA-cfp) activity with CL added, fluorescence microscopy; type: cell-based
# Protocol: Three kinds of biofilms were tested—colony type, pellicle and bundles. For colony type—bacteria were grown in LB medium for 5h and then 3-5 μl of the culture were spotted on an LB-GM (1% tryptone, 0.5% yeast extract, 0.5% NaCl, 1% glycerol, 0.1 mM MnSO4 and 2% agar) (Difco) or modified MRS (MMRS—MRS pH 7) (Man, Rogosa & Sharpe) (Hy-labs) plates. Once the spotted drops were soaked into the medium, the plates were incubated upside down at 30° C. for 72 h. For pellicle biofilm formation 24-well plates were used. Bacteria were grown in LB medium for 5 h and then the culture was diluted 1:1000 into MMRS. Next, plates were incubated at 30° C., 20 rpm for 48 h. For the experiments with supplementation of CL, 0-100 μM CL dissolved in chloroform was added (final concentration of chloroform was 0.2%). For bundle type biofilm, a starter culture was prepared using a single bacterial colony inoculated into 5 ml of LB medium overnight at 30° C., 150 rpm. Next, bacteria were diluted 1:100 into fresh MMRS at 37° C., 25 rpm and after 5-7 h a 1 ml sample was taken and washed twice with sterile water. For longer incubation times, a starter culture was prepared using a single bacterial colony inoculated into 3 ml of LB medium for 5 h at 37° C., 150 rpm. Next, bacteria were diluted 1:100 into fresh MMRS at 23° C., 25 rpm overnight. The samples were visualized by fluorescence microscopy.
# (§1) For visualization of bundle type biofilm a 1 ml sample was taken and washed twice with sterile water. Next Nonyl Acridine Orange (NAO) (Invitrogen A1372) was added to a final concentration of 100 nM for a 20 minutes incubation at room temperature. Next 3-7 μl from each sample were loaded on a microscopy glass slide. The samples were visualized using a fluorescent microscope in a transmitted light microscope using differential interference contrast (DIC) and 426-450 nm laser for CFP excitation (for visualization of YC189) or 457 nm-487 nm laser for GFP excitation (for visualization of NAO stained samples) (Nikon Eclipse Ti2).
# [6] = system: B. subtilis (WT 3610); test: Combined effect of CL and surfactin on pellicle formation, NAO staining; type: cell-based, Bacillus subtilis; conditions: high concentration (50 μM), about 20 h, FIG. 6
# Protocol: as §1
# B. subtilis (WT 3610) was grown for 5 h at 37° C., 150 rpm according to the conditions described above. Then 2 μl of bacteria were added to 1 ml LBG accompanied by solutions with different concentrations of CL and surfactin. After about 20 h the samples were stained with NAO (according to the protocol described herein), which was added to the unwashed samples. Finally, the samples were washed after the staining and the pellicle formation was tested.
# [7] = CL 10 μM and 100 μM, after 12 h, YC189, FIG. 5B
Compound,sensitivity to heat treatments [1],biofilm formation [2],"biofilm formation (pellicle) ([3]; CL 50 μM, 18 h post treatment)","pellicle biofilm formation ([3]; CL 5-50 μM, after 18 hours)",rescue of the mutants' biofilm phenotype [4],"biofilm (bundle) formation [5, 7]","stimulation of the tapA operon (PtapA-cfp) [5, 7]","biofilm formation ([5]; CL 10 μM, after 18 h, YC189, FIG. 5C)","biofilm (bundle) formation ([5]; high concentrations of CL, after 18 h, YC189, FIG. 5C)",string-like structures connecting the bacteria [6]
[Mg+2] [Mg^2+ ions],more sensitive to heat treatments,biofilm is not formed,–,–,–,–,–,–,–,–
cardiolipin [CL],–,–,reduced biofilm formation,delay in pellicle biofilm formation,not able to rescue,biofilm is not formed,not stimulated,substantially reduced,bundles start to form,string-like structures connecting the bacteria have been observed
